From US20030176494A1, “Novel coumarin and chromene compounds and methods of preparation and use thereof for treating or preventing viral infections” (priority 2001, published 2003)
≈ marks a conversion by molar mass, not a printed value. Read-outs that look alike come from different tables or passages of the source.

Assays:
HIV = test: Anti-HIV evaluation by MTT-tetrazolium method (inhibition of CPE in MT-2 / CEM-SS cells); type: cell-based; conditions: Human immunodeficiency virus 1, CEM-SS; read-out: Antiviral Activities (EC50) HIV
Description: This example illustrates the anti-HIV activity of various coumarin and chromene compounds which were evaluated using the published MTT-tetrazolium methods^8. Retroviral agents AZT and DDC were used as controls for comparison purposes.
The cells used for screening were the MT-2 and the human T4-lymphoblastoid cell line, CEM-SS, and were grown in RPMI 1640 medium supplemented with 10% fetal (v/v) heat-inactivated fetal calf serum and also containing 100 units/mL penicillin, 100 μg/mL streptomycin, 25 mM HEPES and 20 μg/mL gentamicin. The medium used for dilution of drugs and maintenance of cultures during the assay was the same as above. The HTLV-IIIB and HTLV-RF were propagated in CEM-SS. The appropriate amounts of the pure compounds for anti-HIV evaluations were dissolved in DMSO, then diluted in medium to the desired initial concentration. The concentrations (M medium) employed were […]; 0.001 μM; 0.0032 μM; 0.01 μM; 0.032 μM; 0.1 μM; 0.32 μM; 1 μM; 3.2 μM; 10 μM; 32 μM; and 100 μM. Each dilution was added to plates in the amount of 100 μL/well. Drugs were tested in triplicate wells per dilution with infected cells while in duplicate wells per dilution with uninfected cells for evaluation of cytotoxicity. On day 6 (CEM-SS cells) and day 7 (MT-2 cells) post-infection, the viable cells were measured with a tetrazolium salt, MTT (5 mg/mL), added to the test plates. A solution of 20% SDS in 0.001 N HCl is used to dissolve the MTT formazan produced. The optical density value was a function of the amount of formazan produced which was proportional to the number of viable cells. The percent inhibition of CPE per drug concentration was measured as a test over control and expressed in percent (T/C %).

Rhinovirus = Rhinovirus antiviral assay (CPE inhibition, neutral red uptake, virus yield); type: cell-based; conditions: Enterovirus
HBV = HBV replication in cultures of 2.2.15 cells (HBV DNA blot hybridization); type: cell-based; conditions: Hepatitis B virus; read-out: Antiviral Activities (EC50) HBV
Description: Test compounds are then added daily for a continuous 9 day period. Culture medium (changed daily during the treatment period) is collected and stored for analysis of extracellular (virion) HBV DNA after 0, 3, 6, and 9 days of treatment. Treated cells are lysed 24 hours following day 9 of treatment for the analysis of intracellular HBV genomic forms. HBV DVA is then analyzed in a quantitative and qualitative manner for overall levels of HBV DNA (both extracellular and intracellular DNA) and the relative rate of HBV replication (intracellular DNA).
Both intracellular and extracellular HBV DNA are analyzed in order to (i) allow for verification of compound efficacy and (ii) provide possible data on the target site in the HBV replication pathway for the compound from examination of the pattern of viral replicative forms. The culture medium is changed daily during the treatment period to (i) prevent the buildup of potentially toxic metabolites derived from test compounds and (ii) provide an analysis of HBV virion production during discrete 24-hour intervals which enables a quantitative comparison of any effect on virion production.
The analysis of HBV DNA is performed using blot hybridization techniques (Southern and slot blot) and [^32P]-labeled HBV-specific probes. HBV DNA levels are measured by comparison to known amounts of HBV DNA standards applied to every nitrocellulose membrane (gel or slot blot). An AMBIS beta scanner, which measures the radioactive decay of the hybridized probes directly from the nitrocellulose membranes, is used for the quantitative analysis. Standard curves, generated by multiple analyses, are used to correlate CPM measurements made by the beta scanner with relative levels of target HBV DNA. The levels of HBV virion DNA released into the culture medium are analyzed by a slot blot hybridization procedure. HBV DNA levels are then compared to those at Day 0 to determine the effect of drug treatment.
The levels of RI and episomal monomers are used as an indicator of the relative level of HBV replication. Integrated HBV DNA is used to normalize the relative amounts of DNA in each lane because the levels of this class of HBV DNA would be expected to remain constant on a per cell basis. […] Inhibition of HBV DNA replication is indicated by the loss of RI without changes in the level of integrated HBV DNA.

Measles Virus = test: Measles virus antiviral assay (CPE inhibition, neutral red uptake, virus yield); type: cell-based, Measles virus strain CC; conditions: Measles morbillivirus
VZV = VZV plaque reduction assay in human foreskin fibroblast cells; type: cell-based, Varicella Zoster Virus (Ellen strain)
Description: [table] Two days prior to use, HFF cells are plated into six-well plates and incubated at 37° C. with 5% CO2 and 90% humidity. On the date of assay, the drug is made up at twice the desired concentration in 2×MEM and then serially diluted 1:5 in 2×MEM using six concentrations of drug. […] The media is then aspirated from the wells and 0.2 mL of virus is added to each well in duplicate with 0.2 mL of media being added to drug toxicity wells. The plates are then incubated for one hour with shaking every fifteen minutes. […] The drug agarose mixture is applied to each well in 2 mL volume and the plates then incubated for three days, after which the cells were stained with a 1.5% solution of neutral red. At the end of 4-6 hr incubation period, the stain is aspirated, and plaques counted using a stereomicroscope at 10× magnification. The procedure is essentially the same as for the HSV plaque assay described above with two exceptions: 1. After addition of the drug, the plates are incubated for ten days. 2.

EBV = EBV assay: superinfection of Raji or Daudi cells with P3HR-1, immunofluorescence for EA and VCA; type: cell-based, Epstein-Barr Virus (P3HR-1)
From the text: There are two prototypes of infectious EBV. One is exemplified by the virus derived from supernatant fluids of the P3HR-1cell line. This cell line produces nontransforming virus that causes the production of early antigen (EA) after primary infection or superinfection of B cell lines. The other prototype is exemplified by the B-95-8 virus. This virus immortalized cord blood lymphocytes and induced tumors in marmosets. […] The virus used in our assays is P3HR-1.
Ramos is an exceptional B cell line derived from Burkitt's lymphoma tumor but containing no detectable EBV genome copies and is EBNA negative. Ramos/AW was obtained by in vitro infection of Ramos with the P3HR-1 virus and contains one resident EBV genome copy/cell. Raji is a Burkitt's lymphoma cell line containing 60 EBV genomes/cell, and will be the primary cell used for screening antiviral activity against EBV EA expression. Daudi is a low level producer that contains 152 EBV genome copies/cell. It spontaneously expresses EBV EA in 0.25%-0.5% of the cells. It will be used in follow-up studies to confirm activity. These cell lines respond to superinfection by EBV by expressing EA(D), EA(R), and VCA. All cell lines are maintained in RPMI-1640 medium supplemented by 10% FCS, L-glutamine and 100 μg/mL gentamicin. The cultures are fed twice weekly and the cell concentration adjusted to 3×10^5/mL. The cells are kept at 37° C. in a humidified atmosphere with 5% CO2.
Cells are infected with the P3HR-1 strain of EBV and the drugs to be tested are added after adsorption (45 minutes at 37° C.) and washing of the cell cultures. The cultures are incubated for two days in complete medium to allow viral gene expression. Following the 48 hr incubation period, the number of cells of each sample are counted and smears made. Monoclonal antibodies to the different EA components and VCA are then added to the cells incubated and washed. This is followed by a fluorescein conjugated rabbit anti-mouse Ig antibody; and the number of fluorescence positive cells in the smears are counted. The total number of cells in the cultures positive for EA or VCA are then calculated and compared.

[1] = tested on: Respiratory Syncytial Virus; test: Respiratory syncytial virus antiviral assay (CPE inhibition, neutral red uptake); type: cell-based, Respiratory syncytial virus strain Utah 89; conditions: human respiratory syncytial virus
[2] = readout not stated, read-out: Antiviral Activities (EC50) Rhinovirus
[3] = CPE inhibition, read-out: Antiviral Activities (EC50) Measles (CPE)
[4] = neutral red (NR) dye uptake, read-out: Antiviral Activities (EC50) Measles (NR)
[5] = Human alphaherpesvirus 3, Fibroblast; read-out: Antiviral Activities (EC50) VZV
[6] = human gammaherpesvirus 4; read-out: Antiviral Activities (EC50) EBV
[7] = readout not stated, read-out: Antiviral Activities (EC50) Respiratory Syncitial
[8] = CPE inhibition, read-out: Antiviral Activities (EC50) Rhinovirus (CPE)
[9] = neutral red (NR) dye uptake, read-out: Antiviral Activities (EC50) Rhinovirus (NR)
[10] = CPE inhibition, read-out: Antiviral Activities (EC50) Respiratory Syncitial (CPE)
[11] = neutral red (NR) dye uptake, read-out: Antiviral Activities (EC50) Respiratory Syncitial (NR)

| Compound | EC50 (HIV) [µg/mL] | EC50 (HBV) [µg/mL] | EC50 (Measles Virus; [3]) [µg/mL] | EC50 (Measles Virus; [4]) [µg/mL] | EC50 (VZV; [5]) [µg/mL] | EC50 (EBV; [6]) [µg/mL] | EC50 [1, 7] [µg/mL] | other results |
| --- | --- | --- | --- | --- | --- | --- | --- | --- |
| CCCc1cc(=O)oc2cc(O[C@H](C)[C@@H](C)CO)c3c(c12)OC(C)(C)C=C3 | > 2 |  |  |  |  |  |  |  |
| CCCc1cc(=O)oc2cc(O[C@H](C)[C@@H](C)CO[Si](C)(C)C(C)(C)C)c3c(c12)OC(C)(C)C=C3 | 7.2 (≈ 14.8 µM) |  |  |  |  |  |  |  |
| CCCc1cc(=O)oc2cc(OC(=O)CC)cc(O)c12 | > 5 | > 3 | 2 (≈ 7.24 µM) | 1 (≈ 3.62 µM) | > 20 | > 50 | 3 (≈ 10.9 µM) | EC50 (Rhinovirus; [2]): > 100 µg/mL |
| CCCc1cc(=O)oc2cc(OCC(C)(C)C(=O)O)c3c(c12)OC(C)(C)C=C3 | > 8 | 2.6 (≈ 6.73 µM) | > 100 | > 100 |  |  | > 100 | EC50 (Rhinovirus; [8]): 10 µg/mL (≈ 25.9 µM); EC50 (Rhinovirus; [9]): 1 µg/mL (≈ 2.59 µM) |
| CCCc1cc(=O)oc2c(C(=O)CC)c(O)cc(O)c12 |  | > 3 | 10 (≈ 36.2 µM) | > 100 | > 0.8 | 0.33 (≈ 1.19 µM) |  | EC50 (Rhinovirus; [8]): 30 µg/mL (≈ 109 µM); EC50 (Rhinovirus; [9]): 28 µg/mL (≈ 101 µM); EC50 [1, 10]: 2 µg/mL (≈ 7.24 µM); EC50 [1, 11]: 4 µg/mL (≈ 14.5 µM) |
| CCCc1cc(=O)oc2c(C(=O)CC)c(O)c3c(c12)OC(C)(C)C=C3 | > 68 | > 3 | 20 (≈ 58.4 µM) | > 100 | 16.1 (≈ 47 µM) | 27 (≈ 78.9 µM) |  | EC50 [1, 10]: 20 µg/mL (≈ 58.4 µM); EC50 [1, 11]: 40 µg/mL (≈ 117 µM) |
| CCCc1cc(=O)oc2c(C(=O)C(C)(O)C(C)O)c(O)c3c(c12)OC(C)(C)C=C3 (centres unmarked) | > 24 | > 4 | 20 (≈ 49.7 µM) | 40 (≈ 99.4 µM) | 19.9 (≈ 49.4 µM) |  |  | EC50 (Rhinovirus; [8]): 0.5 µg/mL (≈ 1.24 µM); EC50 (Rhinovirus; [9]): 1 µg/mL (≈ 2.48 µM); EC50 [1, 10]: 50 µg/mL (≈ 124 µM); EC50 [1, 11]: 40 µg/mL (≈ 99.4 µM) |
| CCCc1cc(=O)oc2cc(OC(C)CCO)c3c(c12)OC(C)(C)C=C3 (centres unmarked) | 1.5 (≈ 4.18 µM) |  |  |  |  |  |  |  |
| CCCc1cc(=O)oc2cc(OC(=O)C(C)(C)C)cc(O)c12 [drawing 26] |  | > 3 |  |  | 83 (≈ 273 µM) | 1.1 (≈ 3.61 µM) |  |  |
| CCCc1cc(=O)oc2cc(O)c(C(=O)CC)c(O)c12 | > 5 | 1 (≈ 3.62 µM) | 3 (≈ 10.9 µM) | 0.4 (≈ 1.45 µM) | > 4 | 8.5 (≈ 30.8 µM) |  | EC50 (Rhinovirus; [8]): 2 µg/mL (≈ 7.24 µM); EC50 (Rhinovirus; [9]): 5 µg/mL (≈ 18.1 µM) |
| CCCc1cc(=O)oc2cc(OC(=O)CC)c3c(c12)OC(C)(C)C=C3 | > 2 | > 10 | 0.4 (≈ 1.17 µM) | 0.3 (≈ 0.876 µM) | > 4 |  | 1 (≈ 2.92 µM) | EC50 (Measles Virus; read-out: Antiviral Activities (EC50) Measles (virus yield)): 0.32 µg/mL (≈ 0.935 µM) |
| CCCc1cc(=O)oc2cc(O)c3c(c12)OC(C)(C)C=C3 |  | > 10 | 0.5 (≈ 1.75 µM) | 0.6 (≈ 2.1 µM) | 89 (≈ 311 µM) | > 50 | 1 (≈ 3.49 µM) |  |
| CCCc1cc(=O)oc2c3c(c4c(c12)OC(C)(C)[C@H](O)[C@H]4OC(=O)c1cccc(Cl)c1)O[C@H](C)[C@@H](C)[C@@H]3O | 8.4 (≈ 15.5 µM) |  |  |  |  |  |  |  |
| CCCc1cc(=O)oc2cc(OC(=O)C(C)(C)C)c3c(c12)OC(C)(C)C=C3 | > 7 | > 10 | 0.2 (≈ 0.54 µM) | 0.6 (≈ 1.62 µM) | > 100 | 0.39 (≈ 1.05 µM) |  |  |
| CCCc1cc(=O)oc2cc(O)cc(O)c12 |  | > 2.2 | > 100 | > 100 |  |  | 6 (≈ 27.2 µM) | EC50 (Rhinovirus; [2]): 27 µg/mL (≈ 123 µM); EC50 (VZV; Human alphaherpesvirus 3, Fibroblast, read-out: Antiviral Activities (EC50) VZV): 5.9 µg/mL (≈ 26.8 µM); EC50 (EBV; human gammaherpesvirus 4, read-out: Antiviral Activities (EC50) EBV): > 50 µg/mL |
| CCCc1cc(=O)oc2cc(OC(C)CCO[Si](C)(C)C(C)(C)C)c3c(c12)OC(C)(C)C=C3 (centres unmarked) | > 18 |  |  |  |  |  |  |  |
